These results are taken from publication PMC13408680, “SLC26A11 is an atypical solute carrier with dual transport-channel function mediating lysosomal sulfate transport” (Nature Communications, 2026).

Data set [1] has as its target T1, SLC26A11^ΔC (SLC26A11(ΔC)) (Homo sapiens, UniProt Q86WA9).
T1 construct: C-terminal disordered 23 residues deleted (MD model residues 26-583); expressed in Trichoplusia ni cells by baculovirus; N-glycosylated at Asn-294; homodimer; DDM micelles (DSF), SoyPC/BMP proteoliposomes (transport), MSP1-E3D1 nanodiscs (cryo-EM)
T1 sequence (Q86WA9 1-583): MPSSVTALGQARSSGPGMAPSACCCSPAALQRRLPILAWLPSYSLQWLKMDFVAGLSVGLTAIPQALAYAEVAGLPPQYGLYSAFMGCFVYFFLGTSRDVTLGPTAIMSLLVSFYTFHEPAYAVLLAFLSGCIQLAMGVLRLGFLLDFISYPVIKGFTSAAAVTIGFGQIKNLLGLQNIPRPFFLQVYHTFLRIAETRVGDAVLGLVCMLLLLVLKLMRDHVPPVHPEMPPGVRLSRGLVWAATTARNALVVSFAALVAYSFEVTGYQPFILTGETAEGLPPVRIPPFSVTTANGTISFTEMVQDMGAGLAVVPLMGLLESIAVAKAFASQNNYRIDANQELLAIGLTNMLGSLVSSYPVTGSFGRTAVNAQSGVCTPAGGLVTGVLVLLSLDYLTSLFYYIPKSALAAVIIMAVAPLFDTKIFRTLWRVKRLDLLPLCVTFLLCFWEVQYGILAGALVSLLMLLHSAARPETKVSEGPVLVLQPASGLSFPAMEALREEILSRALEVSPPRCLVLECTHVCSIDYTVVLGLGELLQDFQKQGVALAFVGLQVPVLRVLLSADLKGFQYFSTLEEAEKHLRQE
Put plainly: differential scanning fluorimetry (nanoDSF), anion titration. The note with it: read-out: apparent KD. Format: binding. (In general: DSF heats the sample and reads unfolding from a dye or from intrinsic fluorescence.)

Data set [2] addresses T2, SLC26A11^ΔC (SLC26A11(ΔC)) (Homo sapiens, UniProt Q86WA9, E320Q).
T2 construct: C-terminal disordered 23 residues deleted (MD model residues 26-583); expressed in Trichoplusia ni cells by baculovirus; N-glycosylated at Asn-294; homodimer; DDM micelles (DSF), SoyPC/BMP proteoliposomes (transport), MSP1-E3D1 nanodiscs (cryo-EM)
T2 sequence (Q86WA9 1-583 E320Q): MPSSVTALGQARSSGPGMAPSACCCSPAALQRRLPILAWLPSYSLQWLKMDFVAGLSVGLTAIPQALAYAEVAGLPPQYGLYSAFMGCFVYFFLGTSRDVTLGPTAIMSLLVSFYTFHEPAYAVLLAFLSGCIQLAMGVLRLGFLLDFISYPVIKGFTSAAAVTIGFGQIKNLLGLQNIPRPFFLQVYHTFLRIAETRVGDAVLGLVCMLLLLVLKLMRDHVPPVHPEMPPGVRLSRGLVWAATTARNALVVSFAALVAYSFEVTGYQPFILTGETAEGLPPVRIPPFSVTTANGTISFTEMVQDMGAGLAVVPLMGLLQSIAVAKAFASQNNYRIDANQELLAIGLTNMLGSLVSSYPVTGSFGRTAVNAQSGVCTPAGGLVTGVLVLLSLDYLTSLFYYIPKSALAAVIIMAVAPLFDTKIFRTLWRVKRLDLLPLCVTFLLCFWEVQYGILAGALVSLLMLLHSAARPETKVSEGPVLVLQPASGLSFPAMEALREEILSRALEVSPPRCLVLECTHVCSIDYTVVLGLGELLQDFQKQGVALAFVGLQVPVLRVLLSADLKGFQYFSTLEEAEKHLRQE
Described as above. It is filed as binding.

Substrate in data set [3]: O=S(=O)(O)O
Put plainly: purified protein. Format: biochemical, Homo sapiens. The following applies: pH out 5.0, pH in 7.5, 50 mM internal chloride, 30 °C, labelled compound.

As to `Cl` [chloride], the Kd was 6 ± 1.4 mM in data set [1] and 8.8 ± 1.4 mM in data set [2].
For `O=S(=O)(O)O` [sulfate], the Kd in data set [1] was found to be 0.057 ± 0.011 mM; in data set [2] it was 0.019 ± 0.004 mM.

B1: SLC26A11^ΔC (SLC26A11(ΔC)) (Homo sapiens) (protein)
chain: MPSSVTALGQARSSGPGMAPSACCCSPAALQRRLPILAWLPSYSLQWLKMDFVAGLSVGLTAIPQALAYAEVAGLPPQYGLYSAFMGCFVYFFLGTSRDVTLGPTAIMSLLVSFYTFHEPAYAVLLAFLSGCIQLAMGVLRLGFLLDFISYPVIKGFTSAAAVTIGFGQIKNLLGLQNIPRPFFLQVYHTFLRIAETRVGDAVLGLVCMLLLLVLKLMRDHVPPVHPEMPPGVRLSRGLVWAATTARNALVVSFAALVAYSFEVTGYQPFILTGETAEGLPPVRIPPFSVTTANGTISFTEMVQDMGAGLAVVPLMGLLESIAVAKAFASQNNYRIDANQELLAIGLTNMLGSLVSSYPVTGSFGRTAVNAQSGVCTPAGGLVTGVLVLLSLDYLTSLFYYIPKSALAAVIIMAVAPLFDTKIFRTLWRVKRLDLLPLCVTFLLCFWEVQYGILAGALVSLLMLLHSAARPETKVSEGPVLVLQPASGLSFPAMEALREEILSRALEVSPPRCLVLECTHVCSIDYTVVLGLGELLQDFQKQGVALAFVGLQVPVLRVLLSADLKGFQYFSTLEEAEKHLRQE
notes: C-terminal disordered 23 residues deleted (MD model residues 26-583); expressed in Trichoplusia ni cells by baculovirus; N-glycosylated at Asn-294; homodimer; DDM micelles (DSF), SoyPC/BMP proteoliposomes (transport), MSP1-E3D1 nanodiscs (cryo-EM)
One may read the Km as the concentration of substrate that gives half-maximal velocity. Take B1: in data set [3], the Km came to 39.7 ± 5.5 µM.
